In paper PMC12591484 (PLOS One, 2025):
Marks after values point to notes of the source that are not given here.

Assays:
Assay in all cases: Drug protection from pCMBS modification (SCAMP)
Type in all cases: cell-based
[1] = molecular target: T1, α1S270Cβ3γ2L GABAA receptors (Homo sapiens, UniProt P14867+P18507+P28472, S297C); conditions: α1S270C (α+); pCMBS 1 µM x 90 s; […] etomidate, 8 µM R-mTFD-MPAB or 10 µM pTFD-di-iPr-BnOH; n = 5
T1 construct: expressed in transfected cells; host or cells: Xenopus oocytes injected with capped mRNA, 1α:1β:5γ
Protocol: (§1) Experiments were performed in ND-96 buffer at room temperature (20–22°C). Oocytes were placed in a low-volume (30µl) flow chamber and impaled with borosilicate microelectrodes filled with 3M KCl (resistance 0.5–3 MΩ) and voltage-clamped at −50 mV (model OC-725C; Warner Instruments, Hamden, CT, USA). Superfusate solutions in ND-96 were delivered at 2 ml/min from glass syringe reservoirs via computer-controlled valves (VC-8; Warner Instruments), a micro-manifold (ALA-VM8; ALA Scientific Instruments, Farmingdale, NY, USA), and PTFE tubing. Currents were digitized at 200 Hz on a computer running ClampEx v8.0 software (Molecular Devices, San Jose, CA, USA). Digitized traces were filtered with a 10-Hz low-pass Bessel function, leak corrected and analyzed for peak amplitude off-line using Clampfit v8 software (Molecular Devices).
(§2) Drug protection from pCMBS modification was assessed under pCMBS exposure conditions that produced approximately half of the maximal modification ratio for each mutant receptor, and a least a value of 3. This approach balanced the magnitude of functional modification signals (smaller with less pCMBS exposure) against the challenge of using a reversibly bound ligand to competitively block an irreversible covalent cysteine-modifying reaction. […] Each oocyte was used in a single SCAMP experiment. […] Etomidate was used as a positive control for anesthetic protection in α1M236C and β3M286C mutants and as a negative control in α1S270C, α1A291C, β3L231C, γ2S301C, γ2I242C, and γ2L246C mutants. R-mTFD-MPAB was used as a positive control in α1S270C, α1A291C, β3L231C, and γ2LS301C mutants and as a negative control in α1M236C and β3M286C mutants. For each cysteine mutant and protective drug combination, five oocytes were studied.
(§3) Non-linear least squares fits and statistical analyses were performed in Prism 10.4.0. (GraphPad Software, San Diego, CA, USA). […] Protection (steric inhibition of pCMBS modification) was inferred when anesthetics produced significant reductions in modification ratios relative to control (no anesthetic) values. The statistical significance threshold was p < 0.05.

[2] = molecular target: T2, α1β3γ2S301C GABAA receptors (Homo sapiens, UniProt P14867+P18507+P28472, S340C); set-up: key: +: SCAMP is Substituted Cysteine Modification and Protection and is positive when adding anesthetic to cysteine modifier significantly reduces persistent post-exposure effects due to covalent modification; -: Negative results are indicated by “–“ symbols; conditions: results of this study (*)
T2 construct: expressed in transfected cells; host or cells: Xenopus oocytes injected with capped mRNAs mixed 1α:1β:5γ
T2 sequence (P14867 28-456): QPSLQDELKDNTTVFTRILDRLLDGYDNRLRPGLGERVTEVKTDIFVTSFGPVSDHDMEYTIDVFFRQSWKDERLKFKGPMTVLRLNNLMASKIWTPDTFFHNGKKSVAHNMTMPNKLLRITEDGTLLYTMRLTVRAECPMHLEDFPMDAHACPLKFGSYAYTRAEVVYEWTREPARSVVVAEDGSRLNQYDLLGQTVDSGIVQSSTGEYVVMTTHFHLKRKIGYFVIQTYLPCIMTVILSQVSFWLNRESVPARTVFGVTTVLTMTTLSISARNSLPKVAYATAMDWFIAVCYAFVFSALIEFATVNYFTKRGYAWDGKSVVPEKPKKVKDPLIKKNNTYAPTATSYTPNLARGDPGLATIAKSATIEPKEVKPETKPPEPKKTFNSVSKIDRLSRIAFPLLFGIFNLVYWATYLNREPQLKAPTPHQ
T2 sequence (P28472 26-473): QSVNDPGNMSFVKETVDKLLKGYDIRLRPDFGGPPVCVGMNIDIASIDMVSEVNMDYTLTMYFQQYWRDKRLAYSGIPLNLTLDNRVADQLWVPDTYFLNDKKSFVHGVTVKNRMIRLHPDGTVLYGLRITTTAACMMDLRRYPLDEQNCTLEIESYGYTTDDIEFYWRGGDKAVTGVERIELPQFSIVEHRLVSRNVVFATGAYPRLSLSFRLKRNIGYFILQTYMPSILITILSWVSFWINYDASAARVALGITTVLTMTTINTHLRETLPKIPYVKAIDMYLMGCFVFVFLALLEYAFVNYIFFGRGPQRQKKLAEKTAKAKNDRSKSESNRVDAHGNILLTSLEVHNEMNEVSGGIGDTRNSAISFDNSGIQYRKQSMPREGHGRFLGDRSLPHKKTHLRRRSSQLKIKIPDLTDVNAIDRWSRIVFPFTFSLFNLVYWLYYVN
T2 sequence (P18507 40-475 S340C): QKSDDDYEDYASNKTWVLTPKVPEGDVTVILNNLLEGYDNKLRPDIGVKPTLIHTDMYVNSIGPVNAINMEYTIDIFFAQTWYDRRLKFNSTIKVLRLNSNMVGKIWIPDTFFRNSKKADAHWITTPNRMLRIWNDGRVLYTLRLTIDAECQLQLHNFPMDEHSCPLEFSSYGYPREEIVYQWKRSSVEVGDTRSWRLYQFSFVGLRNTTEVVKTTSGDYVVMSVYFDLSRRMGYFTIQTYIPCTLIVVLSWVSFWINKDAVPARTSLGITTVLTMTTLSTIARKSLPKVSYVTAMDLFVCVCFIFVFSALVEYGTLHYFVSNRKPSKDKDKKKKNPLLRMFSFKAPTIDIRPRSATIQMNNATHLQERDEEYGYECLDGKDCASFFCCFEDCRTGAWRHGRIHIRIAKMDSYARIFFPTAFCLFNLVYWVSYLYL
Protocol: as §1, §2, §3

[3] = molecular target: T3, α1β3M286Cγ2L GABAA receptors (Homo sapiens, UniProt P14867+P18507+P28472, M311C); conditions: β3M286C (β+); pCMBS 1 µM x 30 s; […] etomidate, 8 µM R-mTFD-MPAB or 10 µM pTFD-di-iPr-BnOH; n = 5
T3 construct: expressed in transfected cells; host or cells: Xenopus oocytes injected with capped mRNA, 1α:1β:5γ
Protocol: as §1, §2, §3

[4] = molecular target: T4, α1M236Cβ3γ2L GABAA receptors (Homo sapiens, UniProt P14867+P18507+P28472, M263C); set-up: key: +: SCAMP is Substituted Cysteine Modification and Protection and is positive when adding anesthetic to cysteine modifier significantly reduces persistent post-exposure effects due to covalent modification; -: Negative results are indicated by “–“ symbols; conditions: results of this study (*); some cells also cite [9]
T4 construct: expressed in transfected cells; host or cells: Xenopus oocytes injected with capped mRNA, 1α:1β:5γ
Protocol: as §1, §2, §3

T1 sequence (P14867 28-456 S297C, one chain of several): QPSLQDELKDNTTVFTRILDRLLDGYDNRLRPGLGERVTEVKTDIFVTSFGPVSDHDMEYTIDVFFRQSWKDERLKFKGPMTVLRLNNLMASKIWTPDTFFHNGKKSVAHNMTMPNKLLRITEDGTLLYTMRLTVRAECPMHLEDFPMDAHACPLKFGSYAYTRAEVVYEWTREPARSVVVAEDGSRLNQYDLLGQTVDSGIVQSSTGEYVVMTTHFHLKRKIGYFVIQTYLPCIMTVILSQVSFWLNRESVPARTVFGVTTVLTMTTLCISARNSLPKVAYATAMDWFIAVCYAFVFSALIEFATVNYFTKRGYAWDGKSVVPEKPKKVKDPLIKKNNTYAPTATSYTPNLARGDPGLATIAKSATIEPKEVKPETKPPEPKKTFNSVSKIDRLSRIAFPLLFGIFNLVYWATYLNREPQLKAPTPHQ
T1 sequence (P18507 40-475, one chain of several): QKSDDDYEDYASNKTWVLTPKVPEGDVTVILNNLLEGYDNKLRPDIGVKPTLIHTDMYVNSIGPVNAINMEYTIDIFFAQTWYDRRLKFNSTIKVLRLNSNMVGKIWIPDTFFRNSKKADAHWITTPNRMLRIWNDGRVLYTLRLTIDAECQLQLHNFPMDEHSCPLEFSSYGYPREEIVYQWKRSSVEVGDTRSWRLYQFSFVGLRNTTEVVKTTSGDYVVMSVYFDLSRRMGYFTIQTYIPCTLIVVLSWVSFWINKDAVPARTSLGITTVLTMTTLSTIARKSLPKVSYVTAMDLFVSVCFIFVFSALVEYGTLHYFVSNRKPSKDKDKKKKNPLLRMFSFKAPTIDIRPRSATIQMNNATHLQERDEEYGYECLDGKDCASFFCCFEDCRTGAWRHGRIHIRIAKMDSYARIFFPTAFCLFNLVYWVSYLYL
T3 sequence (P28472 26-473 M311C, one chain of several): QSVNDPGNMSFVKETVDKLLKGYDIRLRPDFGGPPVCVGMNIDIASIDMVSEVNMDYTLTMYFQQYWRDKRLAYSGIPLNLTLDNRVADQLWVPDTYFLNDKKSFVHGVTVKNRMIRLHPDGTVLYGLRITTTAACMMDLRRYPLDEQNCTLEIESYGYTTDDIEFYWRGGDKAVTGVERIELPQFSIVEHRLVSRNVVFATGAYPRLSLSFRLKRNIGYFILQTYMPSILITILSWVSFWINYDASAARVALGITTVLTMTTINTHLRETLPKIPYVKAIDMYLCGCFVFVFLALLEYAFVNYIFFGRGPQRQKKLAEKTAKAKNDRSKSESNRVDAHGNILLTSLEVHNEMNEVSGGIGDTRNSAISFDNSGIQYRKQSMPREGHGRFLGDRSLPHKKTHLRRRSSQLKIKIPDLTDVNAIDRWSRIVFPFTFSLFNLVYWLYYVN
T3 sequence (P18507 40-475, one chain of several): as the sequence (P18507 40-475, one chain of several) above
T4 sequence (P14867 28-456 M263C, one chain of several): as the sequence (P14867 28-456 S297C, one chain of several) above, with M236C, C270S counted along it
T4 sequence (P18507 40-475, one chain of several): as the sequence (P18507 40-475, one chain of several) above

Compound | protection from pCMBS modification (significant reduction of modification ratio vs control, p < 0.05) [1] | SCAMP result, γ2+ (M2, M3) S301 [2] | protection from pCMBS modification (significant reduction of modification ratio vs control, p < 0.05) [3] | SCAMP result, α1– (M1) M236 [4]
C=CCC1(c2cccc(C3(C(F)(F)F)N=N3)c2)C(=O)NC(=O)N(C)C1=O (stereo not shown) [R-mTFD-MPAB, R-5-allyl-1-methyl-5-(m-trifluoromethyl-diazirynylphenyl) barbituric acid] | protection was inferred | +* | – | –
CCOC(=O)c1cncn1[C@H](C)c1ccccc1 [etomidate, R-etomidate] | – | – | protection was inferred | +^[9], *
